From patent publication US20050176773A1, “Antiproliferative 2-(heteroaryl)-aminothiazole compounds and pharmaceutical compositions, and method for their use” (AGOURON PHARMACEUTICALS, INC., priority 2003, published 2005) come the findings set out here.

Assay [1] has as its target T1, human CDK4 / truncated (1-264) cyclin D3 complex (Homo sapiens, UniProt P11802).
T1 construct: made in house; host or cells: insect cells (baculovirus co-infection)
Description: Inhibition of CDK4/Cyclin D retinoblastoma kinase activity. Format: biochemical. The following applies: Rb fragment substrate, enzyme complex 5 nM. The protocol: Inhibition of CDK4/Cyclin D Retinoblastoma Kinase Activity:
A complex of human CDK4 and genetically truncated (1-264) cyclin D3 was purified using traditional biochemical chromatographic techniques from insect cells that had been co-infected with the corresponding baculovirus expression vectors (see e.g., Meijer, L.; Kim, S.-H. In Methods Enzymol. 1997, 283, 113-128). The enzyme complex (5 nM) was assayed with 0.3-0.5 μg of purified recombinant retinoblastoma protein fragment (Rb) as a substrate. The engineered Rb fragment (residues 386-928 of the native retinoblastoma protein; 62.3 kDa) contains the majority of the phosphorylation sites found in the native 106-kDa protein, as well as a tag of six histidine residues for ease of purification. Phosphorylated Rb substrate was captured by microfiltration on a nitrocellulose membrane and quantified using a phosphorimager as described above. For measurement of tight-binding inhibitors, the assay duration was extended to 60 minutes, during which the time dependence of product formation was linear and initial rate conditions were met.

For assay [2], the target named is T2, CDK2 / proteolyzed cyclin A complex (Homo sapiens, UniProt P24941).
T2 construct: made in house; host or cells: CDK2: insect cells (baculovirus); cyclin A: E. coli, then limited proteolysis
Description: Inhibition of CDK2/Cyclin A retinoblastoma kinase activity. Type of assay: biochemical. Particulars: Rb fragment substrate, CDK2 at 10 nM or 19 nM. The source says:
Inhibition of CDK2/Cyclin A Retinoblastoma Kinase Activity:
CDK2 was purified using published methodology (Rosenblatt, J.; De Bondt, H.; Jancarik, J.; Morgan, D. O.; Kim, S. H. J. Mol. Biol. 1993, 230, 1317-1319) from insect cells that had been infected with a baculovirus expression vector. Cyclin A was purified from E. coli cells expressing full-length recombinant cyclin A, and a truncated cyclin A construct was generated by limited proteolysis and purified as described previously (Jeffrey, P. D.; Russo, A. A.; Polyak, K.; Gibbs, E.; Hurwitz, J.; Massague, J.; Pavletich, N. P. Nature 1995, 376, 313-320.). A complex of CDK2 and proteolyzed cyclin A was prepared and purified by gel filtration. The substrate for this assay was the same Rb substrate fragment used for the CDK4 assays, and the methodology of the CDK2/delta cyclin A and the CDK4/delta cyclin D3 assays was essentially the same, except that CDK2 was present at 10 nM or 19 nM. The duration of the assay was 60 or 75 minutes, during which the time dependence of product formation was linear and initial rate conditions were met.

The next assay concerns HCT-116 cells. Description: Inhibition of cell growth, MTT tetrazolium salt assay. Particulars: Homo sapiens, 144 h, four to six days incubation; for IC50: first value of the cell, read-out: HCT116 IC50; for IC90: second value of the cell, 90% inhibition of growth, read-out: HCT116 IC90. Format: cell-based. Here is the method: Inhibition of Cell Growth: Assessment of Cytotoxicity:
Inhibition of cell growth was measured using the tetrazolium salt assay, which is based on the ability of viable cells to reduce 3-(4,5-dimethylthiazol-2-yl)-2,5-[2H]-diphenyltetrazolium bromide (MTT) to formazan (Mosmann, T. J. Immunol. Methods 1983, 65, 55-63). The water-insoluble purple formazan product was then detected spectrophotometrically. HCT-116 cells were grown in 96-well plates. Cells were plated in the appropriate medium at a volume of 135 μl/well in either McCoy's 5A Medium. Plates were incubated for 4 hours before addition of inhibitor compounds. Different concentrations of inhibitor compounds were added in 0.5% (v/v) dimethylsulfoxide (15 μL/well), and cells were incubated at 37° C. (5% CO2) for four to six days (depending on cell type). At the end of the incubation, MTT was added to a final concentration of 0.2 mg/mL, and cells were incubated for 4 hours more at 37° C. After centrifugation of the plates and removal of medium, the absorbance of the formazan (solubilized in dimethylsulfoxide) was measured at 540 nm. The concentration of inhibitor compound causing 50% (IC50) or 90% (IC90) inhibition of growth was determined from the linear portion of a semi-log plot of inhibitor concentration versus percentage inhibition. All results were compared to control cells treated only with 0.5% (v/v) dimethylsulfoxide.
On the technique in general: Tetrazolium dyes change colour on reduction, which living cells bring about.

Where only a bound is given, the exact number is not on record here.

T1 sequence (P11802 whole entry, the tested form may be a part): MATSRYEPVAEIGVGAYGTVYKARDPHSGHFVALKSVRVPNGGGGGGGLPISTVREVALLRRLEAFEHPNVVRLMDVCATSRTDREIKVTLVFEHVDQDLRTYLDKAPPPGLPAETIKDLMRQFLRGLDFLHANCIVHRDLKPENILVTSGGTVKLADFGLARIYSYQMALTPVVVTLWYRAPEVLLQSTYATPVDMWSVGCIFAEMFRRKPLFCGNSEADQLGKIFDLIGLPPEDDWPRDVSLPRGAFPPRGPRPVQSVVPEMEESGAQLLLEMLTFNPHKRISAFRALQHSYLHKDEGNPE
T1 sequence (P30281 1-264 partner limits assumed): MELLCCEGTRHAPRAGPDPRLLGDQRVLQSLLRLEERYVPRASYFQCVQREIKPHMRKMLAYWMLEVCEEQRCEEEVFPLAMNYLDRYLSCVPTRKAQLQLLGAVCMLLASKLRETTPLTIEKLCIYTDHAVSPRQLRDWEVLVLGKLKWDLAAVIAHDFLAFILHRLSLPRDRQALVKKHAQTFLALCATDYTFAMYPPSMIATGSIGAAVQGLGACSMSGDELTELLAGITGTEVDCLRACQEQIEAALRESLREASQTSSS

Broadly, the Ki is the equilibrium dissociation constant of an inhibitor or competing ligand from its target. Low readings indicate higher affinity, high ones lower affinity. Broadly, the IC50 is the concentration that inhibits the measured activity by half. The term IC90 denotes the point of the concentration-response curve where the effect stands at 90%. Compound `CN1CCC[C@H]1CNC(=O)c1ccc(Nc2nc(N)c(C(=O)c3c(F)cccc3F)s2)cn1` [Example C1A, 5-[4-Amino-5-(2,6-difluoro-benzoyl)-thiazol-2-ylamino]-pyridine-2-carboxylic acid (1-methyl-pyrrolidin-2S-ylmethyl)-amide, reference compound] had a Ki in assay [1] of 37 nM. Further, the Ki in assay [2] was 320 nM. Besides, in the assay on HCT-116 cells, the IC50 amounted to 230 nM and the IC90 worked out at 650 nM.

`CCN1CCCC1CNC(=O)c1ccc(Nc2nc(N)c(C(=O)c3c(F)cccc3F)s2)nc1` (centres unmarked) [Example 1H, 6-[4-Amino-5-(2,6-difluoro-benzoyl)-thiazol-2-ylamino]-N-(1-ethyl-pyrrolidin-2-ylmethyl)-nicotinamide] showed a Ki in assay [1] of 7.1 nM. In assay [2], this compound yielded a Ki of 43 nM. In the assay on HCT-116 cells, the IC50 came out at 32 nM and the IC90 amounted to 60 nM.

In turn, `CNC(C)(C)CNC(=O)c1ccc(Nc2nc(N)c(C(=O)c3c(F)cccc3F)s2)nc1` [Example 1M] gave a Ki in assay [1] of 2.3 nM. In addition, the affinity in assay [2], expressed as Ki, was 35 nM. Besides, in the assay on HCT-116 cells, the IC50 stood at 70 nM and the IC90 was 250 nM.

Take `Nc1nc(Nc2ccc(C(=O)NCc3cccnc3)cn2)sc1C(=O)c1c(F)cccc1F` [Example 1D, 6-[4-Amino-5-(2,6-difluoro-benzoyl)-thiazol-2-ylamino]-N-pyridin-3-ylmethyl-nicotinamide]: the Ki in assay [1] amounted to 6.6 nM. This compound also registered a Ki in assay [2] of 5.7 nM. Moreover, in the assay on HCT-116 cells, the IC50 was 410 nM and the IC90 was over 5000 nM.

`CN(C)C1(CNC(=O)c2ccc(Nc3nc(N)c(C(=O)c4c(F)cccc4F)s3)nc2)CCC1` [Example 1B, 6-[4-Amino-5-(2,6-difluoro-benzoyl)-thiazol-2-ylamino]-N-(1-dimethylaminocyclobutylmethyl)-nicotinamide] showed a Ki in assay [1] of 2.7 nM. For the same compound, the Ki in assay [2] came out at 39 nM. For the same compound, in the assay with HCT-116 cells, the IC50 is 5.8 nM and the IC90 is 20 nM.

In turn, `CN1CCC[C@H]1CNC(=O)c1ccc(Nc2nc(N)c(C(=O)c3c(F)cccc3F)s2)nc1` [Example 1A] gave a Ki in assay [1] of 0.77 nM. This compound yielded a Ki in assay [2] of 7.3 nM. Also, in the assay on HCT-116 cells, the IC50 is 7 nM and the IC90 stood at 170 nM.

Consider `C[C@H](CN(C)C)NC(=O)c1ccc(Nc2nc(N)c(C(=O)c3c(F)cccc3F)s2)cn1` [Example C1B, 5-[4-Amino-5-(2,6-difluoro-benzoyl)-thiazol-2-ylamino]-pyridine-2-carboxylic Acid (2-Dimethylamino-1R-methyl-ethyl)-amide, reference compound], for which the Ki was found to be 120 nM in assay [1] and 400 nM in assay [2]. Moreover, in the assay with HCT-116 cells, the IC50 worked out at 120 nM. For the same compound, the IC90 with HCT-116 cells amounted to 280 nM.

Regarding `Nc1nc(Nc2ccc(C(=O)Nc3ccccc3)cn2)sc1C(=O)c1c(F)cccc1F` [Example 1E, 6-[4-Amino-5-(2,6-difluoro-benzoyl)-thiazol-2-ylamino]-N-phenyl-nicotinamide], the Ki in assay [1] worked out at 18 nM; in assay [2], 17 nM. In the assay on HCT-116 cells, the IC50 is 180 nM. The IC90 in the assay on HCT-116 cells stood at 400 nM.

As for `CNCCNC(=O)c1ccc(Nc2nc(N)c(C(=O)c3c(F)cccc3F)s2)nc1` [Example 3A], the Ki in assay [1] stood at 3.3 nM; in assay [2] it was 21 nM. Further, the IC50 with HCT-116 cells worked out at 210 nM. For the same compound, the IC90 in the assay with HCT-116 cells was 700 nM.

The compound `CN(C)C(C)(C)CNC(=O)c1ccc(Nc2nc(N)c(C(=O)c3c(F)cccc3F)s2)nc1` [Example 1L] returned a Ki in assay [1] of 1.3 nM. Also, in assay [2], the Ki came out at 8.6 nM. In addition, in the assay with HCT-116 cells, the IC50 worked out at 2.5 nM and the IC90 was found to be 8.5 nM.

`Nc1nc(Nc2ccc(C(=O)Nc3ccccn3)cn2)sc1C(=O)c1c(F)cccc1F` [Example 1G, 6-[4-Amino-5-(2,6-difluoro-benzoyl)-thiazol-2-ylamino]-N-pyridin-2-yl-nicotinamide] had a Ki in assay [1] of 35 nM. Further, the Ki in assay [2] came to 18 nM. Besides, in the assay on HCT-116 cells, the IC50 came out at 170 nM and the IC90 was 36000 nM.

Regarding `Nc1nc(Nc2ccc(C(=O)NCc3ccccn3)cn2)sc1C(=O)c1c(F)cccc1F` [Example 1C, 6-[4-Amino-5-(2,6-difluoro-benzoyl)-thiazol-2-ylamino]-N-pyridin-2-ylmethyl-nicotinamide], the Ki in assay [1] came to 12 nM. Moreover, the Ki in assay [2] amounted to 7.2 nM. Besides, in the assay on HCT-116 cells, the IC50 is 79 nM and the IC90 came to 210 nM.

For `C[C@H](CN(C)C)NC(=O)c1ccc(Nc2nc(N)c(C(=O)c3c(F)cccc3F)s2)nc1` [Example 1I, 6-[4-Amino-5-(2,6-difluoro-benzoyl)-thiazol-2-ylamino]-N-(2-dimethylamino-1R-methyl-ethyl)-nicotinamide], in assay [1], the affinity corresponds to a Ki of 0.61 nM. In assay [2], the affinity, expressed as Ki, was 4.4 nM. Besides, in the assay on HCT-116 cells, the IC50 was 2.6 nM and the IC90 came to 5.7 nM.

`Nc1nc(Nc2ccc(C(=O)NCCN3CCCC3)cn2)sc1C(=O)c1c(F)cccc1F` [Example 1J, 6-[4-Amino-5-(2,6-difluoro-benzoyl)-thiazol-2-ylamino]-N-(2-pyrrolidin-1-yl-ethyl)-nicotinamide]: affinity in assay [1] was put at a Ki of 2.2 nM. In addition, the affinity in assay [2] corresponds to a Ki of 11 nM. For the same compound, in the assay on HCT-116 cells, the IC50 is 17 nM and the IC90 turned out to be 50 nM.

`Nc1nc(Nc2ccc(C(=O)NCCN3CCCCC3)cn2)sc1C(=O)c1c(F)cccc1F` [Example 1F, 6-[4-Amino-5-(2,6-difluoro-benzoyl)-thiazol-2-ylamino]-N-(2-piperidin-1-yl-ethyl)-nicotinamide] gave a Ki in assay [1] of 4.3 nM. Moreover, the Ki in assay [2] was found to be 18 nM. Also, in the assay with HCT-116 cells, the IC50 amounted to 17 nM and the IC90 was 40 nM.

Consider `CN(C)CCNC(=O)c1ccc(Nc2nc(N)c(C(=O)c3c(F)cccc3F)s2)nc1` [Example 1K, 6-[4-Amino-5-(2,6-difluoro-benzoyl)-thiazol-2-ylamino]-N-(2-dimethylamino-ethyl)-nicotinamide], for which the Ki in assay [1] is 1.4 nM. Affinity in assay [2] was put at a Ki of 9.8 nM. In the assay on HCT-116 cells, the IC50 came out at 8.8 nM and the IC90 is 21 nM.

In the case of `CN1CCN(c2ccc(Nc3nc(N)c(C(=O)c4c(F)cccc4F)s3)nc2)CC1` [Example 2A, {4-Amino-2-[5-(4-methyl-piperazin-1-yl)-pyridin-2-ylamino]-thiazol-5-yl}-(2,6-difluoro-phenyl)-methanone], the Ki stood at 1.1 nM in assay [1] and 32 nM in assay [2]. Besides, the IC50 with HCT-116 cells worked out at 70 nM. The IC90 with HCT-116 cells stood at 180 nM.
